Laboratory results: ChEMBL document CHEMBL4507292 (2021)

Columns and labels:
[1] = target: Tyrosine-protein kinase ITK/TSK (Homo sapiens) (UniProt Q08881); details: Compound concentration 1000.0 nM
[2] = target: Homeodomain-interacting protein kinase 3 (Homo sapiens) (UniProt Q9H422); details: Compound concentration 1000.0 nM
[3] = target: 5'-AMP-activated protein kinase catalytic subunit alpha-2 (Homo sapiens) (UniProt P54646); details: Compound concentration 1000.0 nM
[4] = target: Leucine-rich repeat serine/threonine-protein kinase 2 (Homo sapiens) (UniProt Q5S007); details: Compound concentration 1000.0 nM
[5] = target: Cyclin-dependent kinase-like 1 (Homo sapiens) (UniProt Q00532); details: Compound concentration 1000.0 nM
[6] = target: Mitogen-activated protein kinase kinase kinase 1 (Homo sapiens) (UniProt Q13233); details: Compound concentration 1000.0 nM
[7] = target: Mitogen-activated protein kinase 8 (Homo sapiens) (UniProt P45983); details: Compound concentration 1000.0 nM
[8] = target: MAP kinase-activated protein kinase 2 (Homo sapiens) (UniProt P49137); details: Compound concentration 1000.0 nM
[9] = target: Macrophage colony-stimulating factor 1 receptor (Homo sapiens) (UniProt P07333); details: Compound concentration 1000.0 nM
[10] = target: Mitogen-activated protein kinase kinase kinase 7 (Homo sapiens) (UniProt O43318); details: Compound concentration 1000.0 nM
[11] = target: Casein kinase I isoform delta (Homo sapiens) (UniProt P48730); details: Compound concentration 1000.0 nM
[12] = target: Rho-associated protein kinase 2 (Homo sapiens) (UniProt O75116); details: Compound concentration 1000.0 nM
[13] = target: Serine/threonine-protein kinase MRCK gamma (Homo sapiens) (UniProt Q6DT37); details: Compound concentration 1000.0 nM
[14] = target: Dual specificity protein kinase CLK2 (Homo sapiens) (UniProt P49760); details: Compound concentration 1000.0 nM
[15] = target: Sigma non-opioid intracellular receptor 1 (Homo sapiens, UniProt Q99720); details: Compound concentration 10.0 uM
[16] = target: Mitogen-activated protein kinase 11 (Homo sapiens) (UniProt Q15759); details: Compound concentration 1000.0 nM
[17] = target: Vascular endothelial growth factor receptor 2 (Homo sapiens) (UniProt P35968); details: Compound concentration 1000.0 nM
[18] = system: Phosphatidylinositol 4,5-bisphosphate 3-kinase catalytic subunit alpha isoform (Homo sapiens), P42336 [E542K]; details: Compound concentration 1000.0 nM
[19] = target: Cyclin-dependent kinase 11B (Homo sapiens) (UniProt P21127); details: Compound concentration 1000.0 nM
[20] = target: Activin receptor type-2B (Homo sapiens) (UniProt Q13705); details: Compound concentration 1000.0 nM
[21] = target: Serine/threonine-protein kinase PAK 2 (Homo sapiens) (UniProt Q13177); details: Compound concentration 1000.0 nM
[22] = target: Interferon-induced, double-stranded RNA-activated protein kinase (Homo sapiens) (UniProt P19525); details: Compound concentration 1000.0 nM
[23] = target: Tyrosine-protein kinase Lyn (Homo sapiens) (UniProt P07948); details: Compound concentration 1000.0 nM
[24] = system: Epidermal growth factor receptor (Homo sapiens), P00533 [UNDEFINED MUTATION]; details: Compound concentration 1000.0 nM
[25] = target: Tyrosine-protein kinase Yes (Homo sapiens) (UniProt P07947); details: Compound concentration 1000.0 nM
[26] = system: Tyrosine-protein kinase ABL1 (Homo sapiens), P00519 [E255K]; details: Compound concentration 1000.0 nM
[27] = target: Ankyrin repeat and protein kinase domain-containing protein 1 (Homo sapiens) (UniProt Q8NFD2); details: Compound concentration 1000.0 nM
[28] = target: Fibroblast growth factor receptor 2 (Homo sapiens) (UniProt P21802); details: Compound concentration 1000.0 nM
[29] = target: Tyrosine-protein kinase ZAP-70 (Homo sapiens) (UniProt P43403); details: Compound concentration 1000.0 nM
[30] = target: Mast/stem cell growth factor receptor Kit (Homo sapiens) (UniProt P10721); details: Compound concentration 1000.0 nM
[31] = target: Histamine H4 receptor (Homo sapiens) (UniProt Q9H3N8); details: Compound concentration 10.0 uM
[32] = target: Serine/threonine-protein kinase SIK1 (Homo sapiens) (UniProt P57059); details: Compound concentration 1000.0 nM
[33] = system: Phosphatidylinositol 4,5-bisphosphate 3-kinase catalytic subunit alpha isoform (Homo sapiens), P42336 [E545K]; details: Compound concentration 1000.0 nM
[34] = target: Cyclin-G-associated kinase (Homo sapiens) (UniProt O14976); details: Compound concentration 1000.0 nM
[35] = target: Mitogen-activated protein kinase 3 (Homo sapiens) (UniProt P27361); details: Compound concentration 1000.0 nM
[36] = target: High affinity nerve growth factor receptor (Homo sapiens) (UniProt P04629); details: Compound concentration 1000.0 nM
[37] = target: Mitogen-activated protein kinase kinase kinase kinase 1 (Homo sapiens) (UniProt Q92918); details: Compound concentration 1000.0 nM
[38] = target: Macrophage-stimulating protein receptor (Homo sapiens) (UniProt Q04912); details: Compound concentration 1000.0 nM
[39] = target: Tyrosine-protein kinase TXK (Homo sapiens) (UniProt P42681); details: Compound concentration 1000.0 nM
[40] = system: Mast/stem cell growth factor receptor Kit (Homo sapiens), P10721 [V559D,V654A]; details: Compound concentration 1000.0 nM
[41] = target: Tyrosine-protein kinase ABL1 (Homo sapiens) (UniProt P00519); details: Compound concentration 1000.0 nM
[42] = target: MAP kinase-activated protein kinase 5 (Homo sapiens) (UniProt Q8IW41); details: Compound concentration 1000.0 nM
[43] = target: Mitogen-activated protein kinase kinase kinase 14 (Homo sapiens) (UniProt Q99558); details: Compound concentration 1000.0 nM
[44] = target: Macrophage colony-stimulating factor 1 receptor (Homo sapiens) (UniProt P07333); details: Compound concentration 1000.0 nM; remark: listed apart in the source
[45] = target: Serine/threonine-protein kinase PAK 3 (Homo sapiens) (UniProt O75914); details: Compound concentration 1000.0 nM

Chain of Macrophage colony-stimulating factor 1 receptor (Homo sapiens) (P07333 whole entry): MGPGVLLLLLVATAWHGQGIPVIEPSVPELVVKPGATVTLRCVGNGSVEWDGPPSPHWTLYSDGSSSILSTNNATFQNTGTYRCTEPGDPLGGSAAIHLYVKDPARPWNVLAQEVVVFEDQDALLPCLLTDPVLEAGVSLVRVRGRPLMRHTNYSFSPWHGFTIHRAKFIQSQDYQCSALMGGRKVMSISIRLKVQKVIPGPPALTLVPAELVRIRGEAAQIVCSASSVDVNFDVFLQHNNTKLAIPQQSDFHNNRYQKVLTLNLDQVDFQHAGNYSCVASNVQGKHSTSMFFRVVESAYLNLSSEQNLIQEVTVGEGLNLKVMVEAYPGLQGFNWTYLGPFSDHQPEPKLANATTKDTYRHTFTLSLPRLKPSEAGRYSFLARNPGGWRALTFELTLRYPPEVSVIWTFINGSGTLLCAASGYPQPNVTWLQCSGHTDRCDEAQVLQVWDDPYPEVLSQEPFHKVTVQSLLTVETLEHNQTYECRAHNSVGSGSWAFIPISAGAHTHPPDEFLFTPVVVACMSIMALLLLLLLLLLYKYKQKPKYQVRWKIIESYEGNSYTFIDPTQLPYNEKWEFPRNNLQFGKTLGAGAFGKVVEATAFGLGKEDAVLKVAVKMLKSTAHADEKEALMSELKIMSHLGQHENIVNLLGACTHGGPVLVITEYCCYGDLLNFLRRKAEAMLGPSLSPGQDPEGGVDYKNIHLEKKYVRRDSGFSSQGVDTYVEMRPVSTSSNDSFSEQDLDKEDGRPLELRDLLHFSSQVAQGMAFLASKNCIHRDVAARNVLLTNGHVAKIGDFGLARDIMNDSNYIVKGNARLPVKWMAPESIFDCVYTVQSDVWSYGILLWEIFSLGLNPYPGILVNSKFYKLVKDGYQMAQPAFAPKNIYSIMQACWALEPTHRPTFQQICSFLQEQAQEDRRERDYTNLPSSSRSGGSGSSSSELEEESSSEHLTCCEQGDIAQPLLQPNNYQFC
Chain of Mitogen-activated protein kinase 8 (Homo sapiens) (P45983 whole entry): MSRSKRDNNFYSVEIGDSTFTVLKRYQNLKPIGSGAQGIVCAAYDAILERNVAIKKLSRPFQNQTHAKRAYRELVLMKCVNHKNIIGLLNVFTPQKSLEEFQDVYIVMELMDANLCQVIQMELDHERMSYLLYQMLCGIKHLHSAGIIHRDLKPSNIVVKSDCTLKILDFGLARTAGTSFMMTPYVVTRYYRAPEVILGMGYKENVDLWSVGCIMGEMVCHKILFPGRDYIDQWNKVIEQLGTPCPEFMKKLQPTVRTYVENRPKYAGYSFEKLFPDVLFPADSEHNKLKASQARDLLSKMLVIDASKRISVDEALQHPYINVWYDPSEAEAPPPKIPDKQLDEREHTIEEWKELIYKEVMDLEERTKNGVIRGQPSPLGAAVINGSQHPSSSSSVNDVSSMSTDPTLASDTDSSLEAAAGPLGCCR
Chain of Tyrosine-protein kinase ITK/TSK (Homo sapiens) (Q08881 whole entry): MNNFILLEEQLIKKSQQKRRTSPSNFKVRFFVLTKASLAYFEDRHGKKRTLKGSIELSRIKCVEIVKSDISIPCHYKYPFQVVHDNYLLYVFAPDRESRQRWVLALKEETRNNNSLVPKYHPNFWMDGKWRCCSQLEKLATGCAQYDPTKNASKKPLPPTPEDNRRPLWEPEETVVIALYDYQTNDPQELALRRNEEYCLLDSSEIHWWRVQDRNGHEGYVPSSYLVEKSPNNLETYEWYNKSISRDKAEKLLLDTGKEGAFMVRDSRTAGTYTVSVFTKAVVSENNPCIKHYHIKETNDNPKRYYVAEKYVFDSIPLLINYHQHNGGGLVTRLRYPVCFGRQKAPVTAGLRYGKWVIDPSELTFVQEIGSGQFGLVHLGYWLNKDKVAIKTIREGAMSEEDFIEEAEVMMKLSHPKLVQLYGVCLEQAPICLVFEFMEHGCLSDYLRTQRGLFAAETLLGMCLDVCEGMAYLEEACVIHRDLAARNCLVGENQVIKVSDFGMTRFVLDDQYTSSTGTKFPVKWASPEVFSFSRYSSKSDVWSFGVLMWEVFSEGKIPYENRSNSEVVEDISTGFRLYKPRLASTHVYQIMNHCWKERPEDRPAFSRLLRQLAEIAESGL
Chain of Serine/threonine-protein kinase MRCK gamma (Homo sapiens) (Q6DT37 whole entry): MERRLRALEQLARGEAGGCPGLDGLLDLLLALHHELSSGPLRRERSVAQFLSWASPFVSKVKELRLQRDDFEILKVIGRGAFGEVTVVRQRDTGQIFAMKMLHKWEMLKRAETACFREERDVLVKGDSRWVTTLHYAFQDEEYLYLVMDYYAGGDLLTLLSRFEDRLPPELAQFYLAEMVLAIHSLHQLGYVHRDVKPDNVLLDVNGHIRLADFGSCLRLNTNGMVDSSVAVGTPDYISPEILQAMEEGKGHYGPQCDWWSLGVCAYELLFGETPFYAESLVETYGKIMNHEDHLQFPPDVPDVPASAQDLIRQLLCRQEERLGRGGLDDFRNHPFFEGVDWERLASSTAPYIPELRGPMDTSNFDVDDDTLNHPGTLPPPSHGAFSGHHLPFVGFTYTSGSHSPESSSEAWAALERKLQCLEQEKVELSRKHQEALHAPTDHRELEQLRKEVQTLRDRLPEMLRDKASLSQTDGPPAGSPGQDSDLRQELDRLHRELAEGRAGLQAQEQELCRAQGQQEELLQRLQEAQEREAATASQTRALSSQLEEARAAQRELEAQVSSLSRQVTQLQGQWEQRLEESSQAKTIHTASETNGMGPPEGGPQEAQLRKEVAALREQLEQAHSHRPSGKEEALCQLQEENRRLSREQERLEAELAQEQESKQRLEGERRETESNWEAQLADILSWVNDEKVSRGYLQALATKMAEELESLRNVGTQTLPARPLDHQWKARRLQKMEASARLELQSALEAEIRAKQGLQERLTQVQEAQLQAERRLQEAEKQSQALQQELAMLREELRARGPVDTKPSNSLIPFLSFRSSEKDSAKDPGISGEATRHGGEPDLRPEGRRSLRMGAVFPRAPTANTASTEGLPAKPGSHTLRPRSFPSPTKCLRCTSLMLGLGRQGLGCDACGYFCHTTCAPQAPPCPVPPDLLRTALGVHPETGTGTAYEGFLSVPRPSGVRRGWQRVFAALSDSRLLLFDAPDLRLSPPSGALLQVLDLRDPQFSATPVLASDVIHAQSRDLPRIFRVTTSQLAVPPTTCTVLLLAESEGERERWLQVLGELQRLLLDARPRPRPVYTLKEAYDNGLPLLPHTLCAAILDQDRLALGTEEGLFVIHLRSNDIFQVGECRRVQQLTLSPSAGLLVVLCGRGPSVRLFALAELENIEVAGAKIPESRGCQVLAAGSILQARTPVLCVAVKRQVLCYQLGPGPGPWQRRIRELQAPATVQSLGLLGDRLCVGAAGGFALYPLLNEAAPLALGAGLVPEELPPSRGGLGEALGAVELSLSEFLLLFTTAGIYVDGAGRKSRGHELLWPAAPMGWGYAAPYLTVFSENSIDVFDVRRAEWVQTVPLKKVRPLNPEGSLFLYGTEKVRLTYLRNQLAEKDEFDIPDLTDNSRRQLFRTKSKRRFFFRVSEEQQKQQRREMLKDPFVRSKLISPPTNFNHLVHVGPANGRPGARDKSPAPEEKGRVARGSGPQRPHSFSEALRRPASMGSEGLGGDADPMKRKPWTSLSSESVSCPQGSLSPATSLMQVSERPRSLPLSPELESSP
Chain of Dual specificity protein kinase CLK2 (Homo sapiens) (P49760 whole entry, looked up): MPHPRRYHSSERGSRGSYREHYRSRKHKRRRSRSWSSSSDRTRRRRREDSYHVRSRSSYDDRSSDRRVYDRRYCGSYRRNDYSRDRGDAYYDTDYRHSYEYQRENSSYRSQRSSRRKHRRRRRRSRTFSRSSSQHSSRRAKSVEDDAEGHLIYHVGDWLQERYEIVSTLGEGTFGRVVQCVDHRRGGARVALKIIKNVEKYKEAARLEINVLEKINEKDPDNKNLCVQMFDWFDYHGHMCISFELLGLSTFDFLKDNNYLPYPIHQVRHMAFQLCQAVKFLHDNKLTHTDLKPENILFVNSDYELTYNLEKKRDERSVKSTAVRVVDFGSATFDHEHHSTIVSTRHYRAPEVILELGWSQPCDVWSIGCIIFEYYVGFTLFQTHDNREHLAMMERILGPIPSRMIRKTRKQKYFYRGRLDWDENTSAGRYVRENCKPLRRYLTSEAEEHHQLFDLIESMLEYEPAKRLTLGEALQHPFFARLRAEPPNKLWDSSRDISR
Chain of Ankyrin repeat and protein kinase domain-containing protein 1 (Homo sapiens) (Q8NFD2 whole entry, the tested form may be a part): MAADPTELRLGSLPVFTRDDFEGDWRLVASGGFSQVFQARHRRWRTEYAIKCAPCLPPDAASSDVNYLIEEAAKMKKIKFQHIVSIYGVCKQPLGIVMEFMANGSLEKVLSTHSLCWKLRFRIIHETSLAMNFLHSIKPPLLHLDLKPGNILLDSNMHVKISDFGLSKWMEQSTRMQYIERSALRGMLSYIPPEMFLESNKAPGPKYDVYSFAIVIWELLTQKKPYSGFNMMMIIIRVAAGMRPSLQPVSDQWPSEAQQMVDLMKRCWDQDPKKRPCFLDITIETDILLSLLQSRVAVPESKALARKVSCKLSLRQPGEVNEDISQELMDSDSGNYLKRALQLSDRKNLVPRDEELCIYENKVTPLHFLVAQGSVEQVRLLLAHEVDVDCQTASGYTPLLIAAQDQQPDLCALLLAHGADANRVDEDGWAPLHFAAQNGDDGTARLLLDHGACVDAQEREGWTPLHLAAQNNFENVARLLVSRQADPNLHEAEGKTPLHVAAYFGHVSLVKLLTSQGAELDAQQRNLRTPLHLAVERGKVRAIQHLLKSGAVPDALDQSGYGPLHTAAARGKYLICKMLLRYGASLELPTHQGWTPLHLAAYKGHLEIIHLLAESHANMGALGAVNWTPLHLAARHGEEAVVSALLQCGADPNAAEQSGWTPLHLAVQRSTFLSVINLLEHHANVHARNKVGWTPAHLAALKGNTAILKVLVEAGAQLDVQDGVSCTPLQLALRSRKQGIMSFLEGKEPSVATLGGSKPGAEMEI
Chain of Sigma non-opioid intracellular receptor 1 (Q99720 whole entry): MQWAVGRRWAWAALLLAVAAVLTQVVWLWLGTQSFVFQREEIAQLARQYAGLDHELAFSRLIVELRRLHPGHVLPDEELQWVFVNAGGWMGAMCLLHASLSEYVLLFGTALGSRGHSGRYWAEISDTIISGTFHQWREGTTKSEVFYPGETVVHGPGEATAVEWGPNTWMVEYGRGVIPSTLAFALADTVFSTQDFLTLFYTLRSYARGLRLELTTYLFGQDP

Cc1c(C(=O)O)cc(-c2ccc(C3CCNCC3)cc2)c2ccc(-c3ccc(C(F)(F)F)cc3)cc12 [PPTN-NC]
residual activity [1]: 100%
residual activity [2]: 100%
residual activity [3]: 100%
residual activity [4]: 100%
residual activity [5]: 82%
residual activity [6]: 100%
residual activity [7]: 100%
residual activity [8]: 88%
residual activity [9]: 100%
residual activity [10]: 100%
residual activity [11]: 100%
residual activity [12]: 89%
residual activity [13]: 100%
residual activity [14]: 100%
inhibition [15]: 91.8%
residual activity [16]: 100%
residual activity [17]: 100%
residual activity [18]: 99%
residual activity [19]: 100%
residual activity [20]: 88%
residual activity [21]: 100%
residual activity [22]: 100%
residual activity [23]: 90%
residual activity [24]: 100%
residual activity [25]: 100%
residual activity [26]: 96%
residual activity [27]: 100%
residual activity [28]: 100%
residual activity [29]: 100%
residual activity [30]: 84%
inhibition [31]: -4.71%
residual activity [32]: 94%
residual activity [33]: 89%
residual activity [34]: 100%
residual activity [35]: 100%
residual activity [36]: 100%
residual activity [37]: 90%
residual activity [38]: 100%
residual activity [39]: 100%
residual activity [40]: 100%
residual activity [41]: 82%
residual activity [42]: 100%
residual activity [43]: 100%
residual activity [44]: 96%
residual activity [45]: 100%

O=C(O)c1cc(-c2ccc(C3CCNCC3)cc2)c2ccc(-c3ccc(C(F)(F)F)cc3)cc2c1 [PPTN]
residual activity [1]: 100%
residual activity [2]: 100%
residual activity [3]: 100%
residual activity [4]: 100%
residual activity [5]: 93%
residual activity [6]: 100%
residual activity [7]: 100%
residual activity [8]: 51%
residual activity [9]: 100%
residual activity [10]: 100%
residual activity [11]: 100%
residual activity [12]: 100%
residual activity [13]: 100%
residual activity [14]: 100%
inhibition [15]: 84.9%
residual activity [16]: 100%
residual activity [17]: 100%
residual activity [18]: 100%
residual activity [19]: 100%
residual activity [20]: 100%
residual activity [21]: 100%
residual activity [22]: 100%
residual activity [23]: 100%
residual activity [24]: 100%
residual activity [25]: 100%
residual activity [26]: 87%
residual activity [27]: 100%
residual activity [28]: 100%
residual activity [29]: 100%
residual activity [30]: 99%
inhibition [31]: -6.7%
residual activity [32]: 100%
residual activity [33]: 100%
residual activity [34]: 100%
residual activity [35]: 100%
residual activity [36]: 100%
residual activity [37]: 96%
residual activity [38]: 100%
residual activity [39]: 100%
residual activity [40]: 100%
residual activity [41]: 75%
residual activity [42]: 100%
residual activity [43]: 100%
residual activity [44]: 85%
residual activity [45]: 100%
